According to patent US10770169B2, “Method of providing a treatment to a subject based on a dynamic pathway map” (THE REGENTS OF THE UNIVERSITY OF CALIFORNIA, priority 2010, dated 2020):
Like-named read-outs stand apart in the source and are kept apart here.

System: panel of 55 breast cancer cell lines
Experiment: Cell growth inhibition assay (Cell Titer Glo, 72 h, 9 doses; GI50, TGI, LC50)
Type: cell-based, human
Settings: Homo sapiens, read-out: GI50 (converted)

CC(C)C[C@H](NC(=O)[C@H](Cc1ccccc1)NC(=O)c1cnccn1)B(O)O [Bortezomib]
GI50 (600MPE cell line, censored GI50 values): 427 nM
GI50 (AU565, AU565 cell line, censored GI50 values): 5.25 nM
GI50 (AU565, cell line AU565): 5.25 nM
GI50 (BT-20, BT20 cell line, censored GI50 values): 46.8 nM
GI50 (BT-20, cell line BT20): 46.8 nM
GI50 (BT-474, BT474 cell line, censored GI50 values): 7.41 nM
GI50 (BT-474, cell line BT474): 7.41 nM
GI50 (BT-483, BT483 cell line, censored GI50 values): 19.5 nM
GI50 (BT-483, cell line BT483): 19.5 nM
GI50 (BT-549, BT549 cell line, censored GI50 values): 6.03 nM
GI50 (BT-549, cell line BT549): 6.03 nM
GI50 (CAMA-1, CAMA1 cell line, censored GI50 values): 16.6 nM
GI50 (CAMA-1, cell line CAMA1): 16.6 nM
GI50 (HCC38, HCC38 cell line, censored GI50 values): 11 nM
GI50 (HCC38, cell line HCC38): 11 nM
GI50 (HCC70, HCC70 cell line, censored GI50 values): 1.78 nM
GI50 (HCC70, cell line HCC70): 1.78 nM
GI50 (HCC202, HCC202 cell line, censored GI50 values): 7.24 nM
GI50 (HCC202, cell line HCC202): 7.24 nM
GI50 (HCC1143, HCC1143 cell line, censored GI50 values): 8.51 nM
GI50 (HCC1143, cell line HCC1143): 8.51 nM
GI50 (HCC1187, HCC1187 cell line, censored GI50 values): 3.39 nM
GI50 (HCC1187, cell line HCC1187): 3.39 nM
GI50 (HCC1395, HCC1395 cell line, censored GI50 values): 7.24 nM
GI50 (HCC1395, cell line HCC1395): 7.24 nM
GI50 (HCC1419, HCC1419 cell line, censored GI50 values): 4.37 nM
GI50 (HCC1419, cell line HCC1419): 4.37 nM
GI50 (HCC1428, HCC1428 cell line, censored GI50 values): 91.2 nM
GI50 (HCC1428, cell line HCC1428): 91.2 nM
GI50 (HCC1500, HCC1500 cell line, censored GI50 values): 12.3 nM
GI50 (HCC1500, cell line HCC1500): 12.3 nM
GI50 (HCC1806, HCC1806 cell line, censored GI50 values): 22.9 nM
GI50 (HCC1806, cell line HCC1806): 22.9 nM
GI50 (HCC1937, HCC1937 cell line, censored GI50 values): 7.59 nM
GI50 (HCC1937, cell line HCC1937): 7.59 nM
GI50 (HCC1954, HCC1954 cell line, censored GI50 values): 10 nM
GI50 (HCC1954, cell line HCC1954): 10 nM
GI50 (HCC2185 cell line, censored GI50 values): 4.47 nM
GI50 (HCC3153 cell line, censored GI50 values): 10.5 nM
GI50 (LY2 cell line, censored GI50 values): 603 nM
GI50 (MCF7, MCF7 cell line, censored GI50 values): 19.1 nM
GI50 (MCF7, cell line MCF7): 19.1 nM
GI50 (MDA-MB-134-VI, MDAMB134VI cell line, censored GI50 values): 8.32 nM
GI50 (MDA-MB-157, MDAMB157 cell line, censored GI50 values): 6.92 nM
GI50 (MDA-MB-157, cell line MDAMB157): 6.92 nM
GI50 (MDA-MB-175-VII, MDAMB175VII cell line, censored GI50 values): 5.25 nM
GI50 (MDA-MB-231, MDAMB231 cell line, censored GI50 values): 27.5 nM
GI50 (MDA-MB-231, cell line MDAMB231): 27.5 nM
GI50 (MDA-MB-361, MDAMB361 cell line, censored GI50 values): 6030 nM
GI50 (MDA-MB-361, cell line MDAMB361): 6030 nM
GI50 (MDA-MB-415, MDAMB415 cell line, censored GI50 values): 32.4 nM
GI50 (MDA-MB-415, cell line MDAMB415): 32.4 nM
GI50 (MDA-MB-436, MDAMB436 cell line, censored GI50 values): 8.71 nM
GI50 (MDA-MB-436, cell line MDAMB436): 8.71 nM
GI50 (MDA-MB-453, MDAMB453 cell line, censored GI50 values): 6.92 nM
GI50 (MDA-MB-453, cell line MDAMB453): 6.92 nM
GI50 (MDA-MB-468, MDAMB468 cell line, censored GI50 values): 14.1 nM
GI50 (MDA-MB-468, cell line MDAMB468): 14.1 nM
GI50 (SK-BR-3, SKBR3 cell line, censored GI50 values): 7.59 nM
GI50 (SK-BR-3, cell line SKBR3): 7.59 nM
GI50 (SUM52PE, SUM52PE cell line, censored GI50 values): 5.25 nM
GI50 (SUM52PE, cell line SUM52PE): 5.25 nM
GI50 (SUM149PT, SUM149PT cell line, censored GI50 values): 7.41 nM
GI50 (SUM149PT, cell line SUM149PT): 7.41 nM
GI50 (SUM185PE, SUM185PE cell line, censored GI50 values): 5.37 nM
GI50 (SUM185PE, cell line SUM185PE): 5.37 nM
GI50 (SUM225CWN, SUM225CWN cell line, censored GI50 values): 10.5 nM
GI50 (SUM225CWN, cell line SUM225CWN): 10.5 nM
GI50 (SUM1315MO2, SUM1315MO2 cell line, censored GI50 values): 13.8 nM
GI50 (SUM-159-PT, SUM159PT cell line, censored GI50 values): 7.41 nM
GI50 (SUM-159-PT, cell line SUM159PT): 7.41 nM
GI50 (T47D, T47D cell line, censored GI50 values): 8.32 nM
GI50 (T47D, cell line T47D): 8.32 nM
GI50 (UACC-812, UACC812 cell line, censored GI50 values): 24 nM
GI50 (UACC-812, cell line UACC812): 24 nM
GI50 (UACC-893, UACC893 cell line, censored GI50 values): 0.646 nM
GI50 (UACC-893, cell line UACC893): 0.646 nM
GI50 (ZR-75-1, ZR751 cell line, censored GI50 values): 17.4 nM
GI50 (ZR-75-1, cell line ZR751): 17.4 nM
GI50 (ZR-75B, ZR75B cell line, censored GI50 values): 132 nM
GI50 (ZR-75B, cell line ZR75B): 132 nM
GI50 (cell line 600MPE): 427 nM
GI50 (cell line HCC2185): 4.47 nM
GI50 (cell line HCC3153): 10.5 nM
GI50 (cell line LY2): 603 nM
GI50 (cell line MDAMB134V): 8.32 nM
GI50 (cell line MDAMB175V): 5.25 nM
GI50 (cell line SUM1315MO): 13.8 nM
